Results published in ChEMBL document CHEMBL4818994, “Uncompetitive nanomolar dimeric indenoindole inhibitors of the human breast cancer resistance pump ABCG2” (Eur J Med Chem, 2021).

What was measured:
[1] = target: T1, Broad substrate specificity ATP-binding cassette transporter ABCG2 (Homo sapiens, UniProt Q9UNQ0); test: Inhibition of human ABCG2 transfected in human HEK293 cells assessed as inhibition of mitoxantrone efflux measured after 30 mins by FACS Calibur cytometric analysis; format: cell-based
T1 sequence (Q9UNQ0 whole entry): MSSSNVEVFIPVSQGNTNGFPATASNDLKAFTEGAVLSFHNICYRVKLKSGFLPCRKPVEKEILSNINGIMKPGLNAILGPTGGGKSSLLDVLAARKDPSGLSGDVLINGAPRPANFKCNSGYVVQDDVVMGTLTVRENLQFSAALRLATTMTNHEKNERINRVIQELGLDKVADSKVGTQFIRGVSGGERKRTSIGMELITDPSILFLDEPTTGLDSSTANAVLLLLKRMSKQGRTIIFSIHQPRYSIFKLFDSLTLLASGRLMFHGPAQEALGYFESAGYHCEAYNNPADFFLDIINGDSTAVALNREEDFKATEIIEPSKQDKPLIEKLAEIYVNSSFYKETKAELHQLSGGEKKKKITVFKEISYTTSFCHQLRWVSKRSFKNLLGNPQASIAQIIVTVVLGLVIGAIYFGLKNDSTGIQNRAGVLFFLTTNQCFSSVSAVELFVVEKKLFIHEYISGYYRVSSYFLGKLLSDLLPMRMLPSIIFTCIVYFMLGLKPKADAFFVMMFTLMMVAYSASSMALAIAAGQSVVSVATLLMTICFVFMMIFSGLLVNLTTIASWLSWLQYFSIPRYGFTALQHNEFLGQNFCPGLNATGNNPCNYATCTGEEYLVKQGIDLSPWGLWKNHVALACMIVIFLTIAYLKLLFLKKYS

[2] = Growth inhibition of human HEK293 cells overexpressing human ABCG2 after 72 hrs by MTT assay; format: ADME, cell-based; conditions: read-out: IG50
ABCG2 [3] = test: Therapeutic ratio of IG50 for growth inhibition of human HEK293 cells to IC50 for inhibition of human ABCG2 expressed in human HEK293 cells; format: toxicity, cell-based
[4] = Growth inhibition of human HEK293 cells after 72 hrs by MTT assay; format: cell-based; conditions: read-out: IG50
[5] = target: T2, ATP-dependent translocase ABCB1 (Homo sapiens, UniProt P08183); test: Inhibition of human P-gp1 transfected in mouse NIH3T3 cells assessed as inhibition of Rhodamine123 efflux measured after 30 mins by FACS Calibur cytometric analysis; format: cell-based; conditions: nih3t3, 0.5 h
T2 sequence (P08183 whole entry): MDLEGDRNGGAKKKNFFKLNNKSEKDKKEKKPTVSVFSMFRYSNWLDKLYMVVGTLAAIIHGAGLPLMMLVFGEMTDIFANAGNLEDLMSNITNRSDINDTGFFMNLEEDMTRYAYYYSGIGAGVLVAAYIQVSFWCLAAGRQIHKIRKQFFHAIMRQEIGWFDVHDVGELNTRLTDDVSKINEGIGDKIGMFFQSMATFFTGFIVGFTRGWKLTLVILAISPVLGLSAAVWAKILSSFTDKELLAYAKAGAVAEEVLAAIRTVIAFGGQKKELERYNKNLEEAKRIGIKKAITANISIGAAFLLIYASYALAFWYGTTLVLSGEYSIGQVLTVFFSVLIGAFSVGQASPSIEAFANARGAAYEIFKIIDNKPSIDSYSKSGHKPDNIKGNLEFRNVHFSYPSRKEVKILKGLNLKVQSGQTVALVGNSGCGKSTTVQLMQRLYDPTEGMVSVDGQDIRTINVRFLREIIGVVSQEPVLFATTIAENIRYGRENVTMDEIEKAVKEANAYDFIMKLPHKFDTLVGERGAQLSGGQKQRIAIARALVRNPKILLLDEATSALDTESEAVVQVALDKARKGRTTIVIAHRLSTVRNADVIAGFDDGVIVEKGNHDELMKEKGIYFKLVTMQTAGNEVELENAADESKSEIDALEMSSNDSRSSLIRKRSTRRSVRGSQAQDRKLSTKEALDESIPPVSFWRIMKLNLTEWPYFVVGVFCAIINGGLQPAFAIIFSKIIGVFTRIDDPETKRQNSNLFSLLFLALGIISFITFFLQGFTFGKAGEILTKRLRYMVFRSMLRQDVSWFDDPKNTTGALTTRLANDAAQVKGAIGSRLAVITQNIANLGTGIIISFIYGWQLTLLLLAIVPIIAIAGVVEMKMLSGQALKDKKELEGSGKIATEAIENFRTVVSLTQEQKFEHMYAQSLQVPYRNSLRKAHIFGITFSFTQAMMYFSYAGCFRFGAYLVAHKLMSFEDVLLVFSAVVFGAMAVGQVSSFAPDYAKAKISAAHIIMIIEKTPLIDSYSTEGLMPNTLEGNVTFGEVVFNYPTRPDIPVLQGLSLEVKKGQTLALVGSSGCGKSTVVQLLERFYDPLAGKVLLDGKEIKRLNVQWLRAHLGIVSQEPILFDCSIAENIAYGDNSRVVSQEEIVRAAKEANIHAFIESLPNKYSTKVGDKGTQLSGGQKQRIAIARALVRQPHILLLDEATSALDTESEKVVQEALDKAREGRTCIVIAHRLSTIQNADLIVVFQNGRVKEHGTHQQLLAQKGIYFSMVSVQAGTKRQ

ABCG2 [6] = test: Therapeutic ratio of IG50 for growth inhibition of human HEK293 cells overexpressing human ABCG2 to IC50 for inhibition of human ABCG2 expressed in human HEK293 cells; format: toxicity, cell-based
[7] = target: T1, Broad substrate specificity ATP-binding cassette transporter ABCG2; test: Mixed inhibition of human ABCG2 transfected in human HEK293 cells assessed as Ki2 for inhibition of mitoxantrone efflux measured after 30 mins by FACS Calibur cytometric analysis; format: cell-based
[8] = target: T1, Broad substrate specificity ATP-binding cassette transporter ABCG2; test: Mixed inhibition of human ABCG2 transfected in human HEK293 cells assessed as Ki1 for inhibition of mitoxantrone efflux measured after 30 mins by FACS Calibur cytometric analysis; format: cell-based
[9] = target: Multidrug resistance-associated protein 1 (Homo sapiens, UniProt P33527); test: Inhibition of human MRP1 transfected in human HEK293 cells assessed as inhibition of Calcein-AM efflux measured after 30 mins by FACS Calibur cytometric analysis; format: cell-based; conditions: hek293, 0.5 h
Multidrug resistance-associated protein 1, sequence (P33527 whole entry): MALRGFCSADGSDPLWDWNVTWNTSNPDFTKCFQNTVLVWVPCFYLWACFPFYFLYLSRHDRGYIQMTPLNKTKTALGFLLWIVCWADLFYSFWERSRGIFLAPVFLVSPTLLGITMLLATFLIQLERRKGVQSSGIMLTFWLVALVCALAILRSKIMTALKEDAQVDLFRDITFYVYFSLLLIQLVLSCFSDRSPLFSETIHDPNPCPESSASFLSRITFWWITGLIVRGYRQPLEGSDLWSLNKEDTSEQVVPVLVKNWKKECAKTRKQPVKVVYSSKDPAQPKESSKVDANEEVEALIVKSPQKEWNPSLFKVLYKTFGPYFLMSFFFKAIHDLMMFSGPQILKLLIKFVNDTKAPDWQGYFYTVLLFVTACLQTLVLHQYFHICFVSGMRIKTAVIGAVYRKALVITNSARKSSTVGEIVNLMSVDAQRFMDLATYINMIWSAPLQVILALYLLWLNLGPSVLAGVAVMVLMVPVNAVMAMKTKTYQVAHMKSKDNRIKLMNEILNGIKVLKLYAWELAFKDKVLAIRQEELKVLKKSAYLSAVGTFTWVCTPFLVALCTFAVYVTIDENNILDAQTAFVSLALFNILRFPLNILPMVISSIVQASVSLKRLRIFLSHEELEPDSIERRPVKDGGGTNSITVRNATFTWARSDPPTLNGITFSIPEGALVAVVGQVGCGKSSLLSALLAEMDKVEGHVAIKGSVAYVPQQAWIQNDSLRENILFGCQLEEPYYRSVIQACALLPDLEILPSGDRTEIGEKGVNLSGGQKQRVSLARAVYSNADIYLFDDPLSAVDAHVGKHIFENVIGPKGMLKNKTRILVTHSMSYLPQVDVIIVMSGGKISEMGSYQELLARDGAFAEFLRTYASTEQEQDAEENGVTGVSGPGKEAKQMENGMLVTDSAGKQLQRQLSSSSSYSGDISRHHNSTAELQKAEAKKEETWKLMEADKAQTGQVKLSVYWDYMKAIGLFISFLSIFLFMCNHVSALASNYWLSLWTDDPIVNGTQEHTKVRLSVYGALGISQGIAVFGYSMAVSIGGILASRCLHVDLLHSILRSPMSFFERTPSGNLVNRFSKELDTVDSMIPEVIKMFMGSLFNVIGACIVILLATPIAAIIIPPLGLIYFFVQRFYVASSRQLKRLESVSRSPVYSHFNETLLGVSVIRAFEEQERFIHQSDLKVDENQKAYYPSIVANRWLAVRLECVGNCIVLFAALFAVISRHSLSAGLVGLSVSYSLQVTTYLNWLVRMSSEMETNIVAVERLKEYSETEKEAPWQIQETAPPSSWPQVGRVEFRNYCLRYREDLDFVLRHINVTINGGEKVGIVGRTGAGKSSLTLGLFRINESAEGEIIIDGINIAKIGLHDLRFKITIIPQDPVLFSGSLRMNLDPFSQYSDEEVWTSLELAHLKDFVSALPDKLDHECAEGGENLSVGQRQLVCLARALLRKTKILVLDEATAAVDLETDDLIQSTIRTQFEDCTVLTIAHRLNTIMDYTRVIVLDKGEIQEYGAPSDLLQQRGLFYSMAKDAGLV

[10] = target: T2, ATP-dependent translocase ABCB1; test: Inhibition of human P-gp1 transfected in mouse NIH3T3 cells assessed as inhibition of Calcein-AM efflux measured after 30 mins by FACS Calibur cytometric analysis; format: cell-based; conditions: nih3t3, 0.5 h
[11] = target: T1, Broad substrate specificity ATP-binding cassette transporter ABCG2; test: Uncompetitive inhibition of human ABCG2 transfected in human HEK293 cells assessed as Ki2 for inhibition of mitoxantrone efflux measured after 30 mins by FACS Calibur cytometric analysis; format: cell-based
[12] = target: T1, Broad substrate specificity ATP-binding cassette transporter ABCG2; test: Non-competitive inhibition of human ABCG2 transfected in human HEK293 cells assessed as Ki2 for inhibition of mitoxantrone efflux measured after 30 mins by FACS Calibur cytometric analysis; format: cell-based
[13] = target: T1, Broad substrate specificity ATP-binding cassette transporter ABCG2; test: Mixed inhibition of human ABCG2 transfected in human HEK293 cells assessed as Ki2 for inhibition of Hoechst33342 efflux measured after 30 mins by FACS Calibur cytometric analysis; format: cell-based
[14] = target: T1, Broad substrate specificity ATP-binding cassette transporter ABCG2; test: Mixed inhibition of human ABCG2 transfected in human HEK293 cells assessed as Ki1 for inhibition of Hoechst33342 efflux measured after 30 mins by FACS Calibur cytometric analysis; format: cell-based

Compound	IC50 [1] [nM]	GI50 at 72 h [2] [nM]	selectivity ratio (ABCG2 [3])	GI50 at 72 h [4] [nM]	selectivity ratio (ABCG2 [6])	inhibition (INH) [9]	inhibition (INH) [10]	other results
CC1CC(=O)c2c3c(n(CCc4ccccc4)c2C1)-c1cc(OCCCCCCOc2ccc4c(c2)-c2c(c5c(n2CCc2ccccc2)CC(C)CC5=O)C4=O)ccc1C3=O (stereo unspecified)	> 10000							
COc1cccc(CCn2c3c(c4c(OCCOc5ccc6c(c5)-c5c(c7c(n5CCc5ccccc5)CC(C)CC7=O)C6=O)cccc42)C(=O)c2ccccc2-3)c1 (stereo unspecified)	68	221000	3250	221000	3250			inhibition (INH) [5]: Active
COc1cccc(CCn2c3c(c4c(OCCCCCCCCCCCCOc5cccc6c5c5c(n6CCc6cccc(OC)c6)-c6ccccc6C5=O)cccc42)C(=O)c2ccccc2-3)c1	> 10000							
COc1cccc(CCn2c3c(c4c(OCCCCCCOc5ccc6c(c5)-c5c(c7c(n5CCc5ccccc5)CC(C)CC7=O)C6=O)cccc42)C(=O)c2ccccc2-3)c1 (stereo unspecified)	32.6	> 100000	> 3070	> 100000	> 3070	Not Active	Not Active	Ki [7]: 42 nM; Ki [8]: 192 nM; Ki [11]: 38 nM
COc1cccc(CCn2c3c(c4c(OCCCCOc5ccc6c(c5)-c5c(c7c(n5CCc5ccccc5)CC(C)CC7=O)C6=O)cccc42)C(=O)c2ccccc2-3)c1 (stereo unspecified)	133	295000	2230	295000	2230	Not Active	Not Active	
CC1CC(=O)c2c3c(n(CCc4ccccc4)c2C1)-c1ccccc1C3=O (stereo unspecified)	768							Ki [7]: 843 nM; Ki [8]: 323 nM
COc1cccc(CCn2c3c(c4c(OCCCCCCCCCCCCOc5ccc6c(c5)-c5c(c7c(n5CCc5ccccc5)CC(C)CC7=O)C6=O)cccc42)C(=O)c2ccccc2-3)c1 (stereo unspecified)	> 10000							
COc1cccc(CCn2c3c(c4c(O)cccc42)C(=O)c2ccccc2-3)c1	732							Ki [7]: 294 nM; Ki [8]: 188 nM; Ki [12]: 250 nM
CC1CC(=O)c2c3c(n(CCc4ccccc4)c2C1)-c1cc(OCCCCOc2ccc4c(c2)-c2c(c5c(n2CCc2ccccc2)CC(C)CC5=O)C4=O)ccc1C3=O (stereo unspecified)	867	109000	126	109000	126	Not Active	Not Active	
COc1cccc(CCn2c3c(c4c(OCCCCCCCCOc5cccc6c5c5c(n6CCc6cccc(OC)c6)-c6ccccc6C5=O)cccc42)C(=O)c2ccccc2-3)c1	> 10000							
COc1cccc(CCn2c3c(c4c(OCCCCCCOc5cccc6c5c5c(n6CCc6cccc(OC)c6)-c6ccccc6C5=O)cccc42)C(=O)c2ccccc2-3)c1	27.4		≥ 70000		≥ 70000	Not Active	Not Active	
COc1cccc(CCn2c3c(c4c(OCCCCOc5cccc6c5c5c(n6CCc6cccc(OC)c6)-c6ccccc6C5=O)cccc42)C(=O)c2ccccc2-3)c1	24.1	51800	3300	79600	2160	Not Active	Not Active	Ki [13]: 29 nM; Ki [14]: 113 nM; Ki [11]: 17 nM
CC1CC(=O)c2c3c(n(CCc4ccccc4)c2C1)-c1cc(OCCCCCCCCOc2ccc4c(c2)-c2c(c5c(n2CCc2ccccc2)CC(C)CC5=O)C4=O)ccc1C3=O (stereo unspecified)	> 10000							
CC1CC(=O)c2c3c(n(CCc4ccccc4)c2C1)-c1cc(OCCOc2ccc4c(c2)-c2c(c5c(n2CCc2ccccc2)CC(C)CC5=O)C4=O)ccc1C3=O (stereo unspecified)	319	242000	758	242000	758	Not Active	Not Active	
COc1cccc(CCn2c3c(c4c(OCCCCCCCCOc5ccc6c(c5)-c5c(c7c(n5CCc5ccccc5)CC(C)CC7=O)C6=O)cccc42)C(=O)c2ccccc2-3)c1 (stereo unspecified)	389	> 20000	> 52	> 20000	> 52	Not Active	Not Active	
COc1cccc(CCn2c3c(c4c(OCCCCCCCCCCOc5ccc6c(c5)-c5c(c7c(n5CCc5ccccc5)CC(C)CC7=O)C6=O)cccc42)C(=O)c2ccccc2-3)c1 (stereo unspecified)	> 10000							
CC1CC(=O)c2c3c(n(CCc4ccccc4)c2C1)-c1cc(OCCCCCCCCCCOc2ccc4c(c2)-c2c(c5c(n2CCc2ccccc2)CC(C)CC5=O)C4=O)ccc1C3=O (stereo unspecified)	> 10000							
CC1CC(=O)c2c3c(n(CCc4ccccc4)c2C1)-c1cc(OCCCCCCCCCCCCOc2ccc4c(c2)-c2c(c5c(n2CCc2ccccc2)CC(C)CC5=O)C4=O)ccc1C3=O (stereo unspecified)	> 10000							
COc1cccc(CCn2c3c(c4c(OCCOc5cccc6c5c5c(n6CCc6cccc(OC)c6)-c6ccccc6C5=O)cccc42)C(=O)c2ccccc2-3)c1	38.4	> 100000	≥ 2630	917000		Not Active	Not Active	
COc1cccc(CCn2c3c(c4c(OCCCCCCCCCCOc5cccc6c5c5c(n6CCc6cccc(OC)c6)-c6ccccc6C5=O)cccc42)C(=O)c2ccccc2-3)c1	> 10000							
